Experiments:
Type in all cases: in vivo
[1] = tested on: Amaranthus retoflexus (AMARE); assay: Post-emergence herbicide test, glasshouse, percentage damage; settings: 1000 g/ha, evaluated after 13 days
Summary of the method: (§1)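 Pot-grown plants were sprayed at 500 g/ha unless otherwise stated, in acetone/water (50:50) with 0.5% Tween 20. Pre-emergence spraying was 1 day after sowing and post-emergence after 8 days, in a glasshouse at 24/16° C, 14 h light, 65% humidity. Percentage damage was scored 13 days later on a 1–5 scale (5=81-100%).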

[2] = tested on: Echinochloa crus-galli (ECHCG); assay: as above; settings: 1000 g/ha, evaluated after 13 days
Summary of the method: as §1

[3] = tested on: Ipomoea hederacea (IPOHE); assay: as above; settings: 1000 g/ha, evaluated after 13 days
Summary of the method: as §1

[4] = tested on: Lolium perenne (LOLPE); assay: as above; settings: 1000 g/ha, evaluated after 13 days
Summary of the method: as §1

[5] = tested on: Setaria faberi (SETFA); assay: as above; settings: 1000 g/ha, evaluated after 13 days
Summary of the method: as §1

[6] = tested on: Solanum nigrum (SOLNI); assay: as above; settings: 1000 g/ha, evaluated after 13 days
Summary of the method: as §1

[7] = tested on: Amaranthus retoflexus (AMARE); assay: Pre-emergence herbicide test, glasshouse, percentage damage; settings: rate 1000 g/ha, evaluated after 13 days
Summary of the method: as §1

[8] = tested on: Echinochloa crus-galli (ECHCG); assay: as above; settings: rate 1000 g/ha, evaluated after 13 days
Summary of the method: as §1

[9] = tested on: Ipomoea hederacea (IPOHE); assay: as above; settings: rate 1000 g/ha, evaluated after 13 days
Summary of the method: as §1

[10] = tested on: Lolium perenne (LOLPE); assay: as above; settings: rate 1000 g/ha, evaluated after 13 days
Summary of the method: as §1

[11] = tested on: Setaria faberi (SETFA); assay: as above; settings: rate 1000 g/ha, evaluated after 13 days
Summary of the method: as §1

[12] = tested on: Solanum nigrum (SOLNI); assay: as above; settings: rate 1000 g/ha, evaluated after 13 days
Summary of the method: as §1

Row | SMILES | percentage damage caused to the plant, AMARE [1] | percentage damage caused to the plant, ECHCG [2] | percentage damage caused to the plant, IPOHE [3] | percentage damage caused to the plant, LOLPE [4] | percentage damage caused to the plant, SETFA [5] | percentage damage caused to the plant, SOLNI [6] | Pre-emergence Test AMARE percentage damage (five point scale) [7] | Pre-emergence Test ECHCG percentage damage (five point scale) [8] | Pre-emergence Test IPOHE percentage damage (five point scale) [9] | Pre-emergence Test LOLPE percentage damage (five point scale) [10] | Pre-emergence Test SETFA percentage damage (five point scale) [11] | Pre-emergence Test SOLNI percentage damage (five point scale) [12]
1 | Fc1cc(Cl)cnc1Oc1ccccc1-n1ccnc1 [Compound A28, 5-chloro-3-fluoro-2-(2-imidazol-1-ylphenoxy)pyridine] | 5 (5=81-100%) | 1 (1=0-20%) | 1 (1=0-20%) | 1 (1=0-20%) | 1 (1=0-20%) | 4 (4=61-80%) | 3 (3=41-60%) | 1 (1=0-20%) | 1 (1=0-20%) | 1 (1=0-20%) | 1 (1=0-20%) | 1 (1=0-20%)
2 | Fc1cc(Cl)cnc1Oc1ccccc1-n1ncc(C(F)(F)F)n1 [Compound A81] | 5 (5=81-100%) | 4 (4=61-80%) | 2 (2=21-40%) | 1 (1=0-20%) | 4 (4=61-80%) | 4 (4=61-80%) | 5 (5=81-100%) | 4 (4=61-80%) | 2 (2=21-40%) | 1 (1=0-20%) | 4 (4=61-80%) | 3 (3=41-60%)
3 | FC(F)c1cc(-c2c(Cl)cccc2Oc2cc(Cl)ccn2)on1 [Compound A92] | 4 (4=61-80%) | 4 (4=61-80%) | 4 (4=61-80%) | 4 (4=61-80%) | 4 (4=61-80%) | 4 (4=61-80%) | 4 (4=61-80%) | 1 (1=0-20%) | 4 (4=61-80%) | 5 (5=81-100%) | 5 (5=81-100%) | 2 (2=21-40%)
4 | O=[N+]([O-])c1ccc(Oc2cccc(Br)c2-c2cc(C(F)F)no2)nc1 [Compound A88] | 5 (5=81-100%) | 4 (4=61-80%) | 2 (2=21-40%) | 3 (3=41-60%) | 4 (4=61-80%) | 4 (4=61-80%) | 5 (5=81-100%) | 5 (5=81-100%) | 1 (1=0-20%) | 4 (4=61-80%) | 5 (5=81-100%) | 4 (4=61-80%)
5 | Fc1cnc(Oc2cccc(Cl)c2-c2cc(C(F)F)no2)c(F)c1 [Compound A114] | 5 (5=81-100%) | 4 (4=61-80%) | 5 (5=81-100%) | 4 (4=61-80%) | 5 (5=81-100%) | 5 (5=81-100%) | 5 (5=81-100%) | 5 (5=81-100%) | 5 (5=81-100%) | 5 (5=81-100%) | 5 (5=81-100%) | 4 (4=61-80%)
6 | Fc1cc(C(F)(F)F)cnc1Oc1cccc(F)c1-c1cc(C(F)F)no1 [Compound A21] | 4 (4=61-80%) | 4 (4=61-80%) | 3 (3=41-60%) | 3 (3=41-60%) | 4 (4=61-80%) | 3 (3=41-60%) | 5 (5=81-100%) | 5 (5=81-100%) | 2 (2=21-40%) | 4 (4=61-80%) | 5 (5=81-100%) | 2 (2=21-40%)
7 | Fc1cccc(Oc2ncc(C(F)(F)F)cc2Cl)c1-c1cc(C(F)F)no1 [Compound A51] | 4 (4=61-80%) | 1 (1=0-20%) | 1 (1=0-20%) | 1 (1=0-20%) | 1 (1=0-20%) | 5 (5=81-100%) | 1 (1=0-20%) | 1 (1=0-20%) | 1 (1=0-20%) | 1 (1=0-20%) | 1 (1=0-20%) | 1 (1=0-20%)
8 | Cc1cccc(Oc2ncc(Cl)cc2F)c1-n1cc(C(F)(F)F)cn1 [Compound A54] | 3 (3=41-60%) | 3 (3=41-60%) | 1 (1=0-20%) | 4 (4=61-80%) | 5 (5=81-100%) | 5 (5=81-100%) | 5 (5=81-100%) | 3 (3=41-60%) | 1 (1=0-20%) | 5 (5=81-100%) | 5 (5=81-100%) | 5 (5=81-100%)
9 | Fc1cc(Br)cnc1Oc1cccc(Br)c1-c1cc(C(F)F)no1 [Compound A103] | 5 (5=81-100%) | 4 (4=61-80%) | 5 (5=81-100%) | 5 (5=81-100%) | 5 (5=81-100%) | 5 (5=81-100%) | 5 (5=81-100%) | 5 (5=81-100%) | 5 (5=81-100%) | 5 (5=81-100%) | 5 (5=81-100%) | 3 (3=41-60%)
